Data on three compounds can be found in BindingDB's records for patent US10301305 (Mutabilis, 2019).

Holding throughout (assay): in vitro DltA activity assay
In test [1] the target is T1, D-alanine--D-alanyl carrier protein ligase (Enterococcus faecalis (strain ATCC 700802 / V583), UniProt Q830N0).
T1 sequence (Q830N0 whole entry): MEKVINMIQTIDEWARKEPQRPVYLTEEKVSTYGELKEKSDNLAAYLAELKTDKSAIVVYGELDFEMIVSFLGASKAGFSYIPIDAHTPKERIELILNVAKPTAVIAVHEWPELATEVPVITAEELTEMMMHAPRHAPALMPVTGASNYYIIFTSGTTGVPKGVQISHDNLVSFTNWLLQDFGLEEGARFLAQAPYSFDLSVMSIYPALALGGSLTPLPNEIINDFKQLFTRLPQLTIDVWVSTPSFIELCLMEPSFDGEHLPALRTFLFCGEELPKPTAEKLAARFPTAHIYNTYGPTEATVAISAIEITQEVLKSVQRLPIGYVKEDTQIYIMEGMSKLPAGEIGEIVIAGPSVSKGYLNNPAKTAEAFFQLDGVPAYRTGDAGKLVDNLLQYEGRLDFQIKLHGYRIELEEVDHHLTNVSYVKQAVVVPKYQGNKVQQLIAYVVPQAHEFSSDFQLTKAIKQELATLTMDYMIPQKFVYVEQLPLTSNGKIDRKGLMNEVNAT
The method, then: (§1) The assay buffer AB contained 50 mM Hepes pH8.0, 10 mM MgCl2, 50 mM KCl, 0.012% Triton-X100, 10 mM DTT and 100 nM Myelin-basic protein. The following components were added in a white polystyrene Costar plate up to a final volume of 30 μL: 3 μL DMSO, or inhibitor dissolved in DMSO and 27 μL DltA enzyme in AB. After 30 min of pre-incubation at room temperature, 30 μL of Substrates mix in AB were added in each well to a final volume of 60 μL. This reaction mixture was then composed of DltA (produced in house from S. aureus, E. faecalis, E. faecium and S. agalactiae), 0.5 mM D-Alanine (Sigma), 0.5-5 μM ATP (Sigma) and 0.05 u/ml inorganic pyrophosphatase (Sigma) in assay buffer. After typically 1-2 hours of incubation at room temperature (conversion rate around 30%), 30 μL of the revelation mix were added to a final volume of 90 μL, including the following constituents at the respective final concentrations: 10000 u/ml luciferase (Sigma), 30 μM D-luciferin (Sigma), 100 μM N-acetylcysteamine (Aldrich). Luminescence intensity was immediately measured on a Fluostar Optima (BMG) (excitation 360 nm, emission 520 nm) and converted into inhibition percentages. For IC50 determinations (Inhibitory Concentration 50%) the inhibitor was added at 6 to 10 different concentrations and the related inhibitions were fitted to a classical Langmuir equilibrium model using XLFIT (IDBS).

In test [2] the target is T2, D-alanine--D-alanyl carrier protein ligase (Enterococcus faecium (strain ATCC BAA-472 / TX0016 / DO), UniProt Q3XZT7).
T2 sequence (Q3XZT7 whole entry): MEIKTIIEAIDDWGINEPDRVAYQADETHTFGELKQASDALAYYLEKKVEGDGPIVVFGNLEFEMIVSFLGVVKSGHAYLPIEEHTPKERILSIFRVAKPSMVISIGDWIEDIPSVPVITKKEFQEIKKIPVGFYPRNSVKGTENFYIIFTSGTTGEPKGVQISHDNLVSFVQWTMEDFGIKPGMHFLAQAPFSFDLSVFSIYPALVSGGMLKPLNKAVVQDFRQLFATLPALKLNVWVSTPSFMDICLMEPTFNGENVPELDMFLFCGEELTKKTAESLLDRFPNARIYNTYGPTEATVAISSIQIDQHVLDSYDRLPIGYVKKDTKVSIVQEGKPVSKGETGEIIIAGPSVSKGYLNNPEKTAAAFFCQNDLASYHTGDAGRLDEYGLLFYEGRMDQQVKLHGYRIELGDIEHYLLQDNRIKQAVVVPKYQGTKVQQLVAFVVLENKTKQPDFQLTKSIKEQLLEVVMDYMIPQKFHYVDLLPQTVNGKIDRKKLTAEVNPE
The method, then:
as §1

Test [3] addresses T3, D-alanine--D-alanyl carrier protein ligase (Staphylococcus aureus, UniProt Q2FZW6).
T3 construct: gene dltA
The method, then: as §1

T3 sequence (Q2FZW6 whole entry, looked up): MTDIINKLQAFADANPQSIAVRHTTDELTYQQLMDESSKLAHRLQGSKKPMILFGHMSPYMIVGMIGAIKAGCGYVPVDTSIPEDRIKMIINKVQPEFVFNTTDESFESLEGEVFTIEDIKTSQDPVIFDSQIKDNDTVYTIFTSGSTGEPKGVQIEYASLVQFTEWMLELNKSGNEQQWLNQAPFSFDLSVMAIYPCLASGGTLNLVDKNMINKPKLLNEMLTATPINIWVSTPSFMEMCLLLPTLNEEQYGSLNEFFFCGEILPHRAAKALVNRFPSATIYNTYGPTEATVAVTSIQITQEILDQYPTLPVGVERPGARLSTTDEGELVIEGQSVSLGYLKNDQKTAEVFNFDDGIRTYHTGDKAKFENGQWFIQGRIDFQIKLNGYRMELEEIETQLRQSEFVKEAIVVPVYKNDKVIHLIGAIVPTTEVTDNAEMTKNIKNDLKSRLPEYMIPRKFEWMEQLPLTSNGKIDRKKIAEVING

Usually IC50 stands for the midpoint of a concentration-inhibition curve. Turning to `C[C@H]1CCCC(n2cnc3cc(-c4cc(N(C)CCN(C)C)c(C(N)=O)c5[nH]cnc45)ccc32)C1` (mixture of isomers), the 50% inhibitory concentration (IC50) in test [1] came to 4.3 nM; in test [2], 25 nM.
As for `COc1cc(-c2ccc3c(c2)ncn3C2CCCCC2)c2nc[nH]c2c1C(N)=O` [US10301305, Example 88], the results for the half-inhibitory concentration (IC50) in test [1], in test [2] and in test [3] were 26 nM, 79 nM and 33 nM, respectively.
The matching figures for `CCn1cnc2cc(-c3cc(OCCN(C)C)c(C(N)=O)c4[nH]cnc34)ccc21` [US10301305, Example 198]: 8.3 nM, 73 nM and 6.8 nM.
